Assay results: patent US9540702B2, “Stabilization of enzymes with stable coenzymes” (Roche Diabetes Care, Inc., priority 2009, dated 2017)

What was measured:
[1] = molecular target: glucose dehydrogenase (GlucDH, wild-type) (Bacillus subtilis, UniProt P12310); assay: Residual activity of GlucDH stored dry on Pokalon foils with coenzyme at 32° C., 85% relative air humidity; assay type: biochemical
Method: carbaNAD (FIG. 1A) or NAD were added to the glucose-specific GlucDH. These formulations were each applied to Pokalon foils (Lonza) and, after drying, stored under warm and humid conditions (32° C., 85% relative air humidity). Subsequently, the reaction kinetics and the function curve were determined at regular intervals. In parallel at each of the measurement times a cNAD/NAD analysis and a determination of the residual activity of the enzyme were carried out.
The result of the determination of residual activity of the active enzyme GlucDH after 5 weeks at 32° C. and 85% relative air humidity (FIG. 7A) is completely surprising. The enzyme stabilized with NAD now only has an extremely low enzyme activity (0.5%), whereas the enzyme stabilized with cNAD still has a residual activity of 70% (in each case compared to the samples stored in a refrigerator (KS) with desiccant (TM)). After 24 weeks at 32° C. and 85% relative air humidity (FIG. 7B) the residual activity of the enzyme when stabilized with cNAD is still about 25%.

[2] = molecular target: glucose dehydrogenase (GlucDH) (Bacillus subtilis, UniProt P12310); assay: Stability of glucose dehydrogenase with coenzyme in a liquid phase at 50° C.; assay type: biochemical; details: 10 mg/ml GlucDH, 12 mg/ml coenzyme, pH 8.5
Chain of glucose dehydrogenase (GlucDH) (P12310 whole entry): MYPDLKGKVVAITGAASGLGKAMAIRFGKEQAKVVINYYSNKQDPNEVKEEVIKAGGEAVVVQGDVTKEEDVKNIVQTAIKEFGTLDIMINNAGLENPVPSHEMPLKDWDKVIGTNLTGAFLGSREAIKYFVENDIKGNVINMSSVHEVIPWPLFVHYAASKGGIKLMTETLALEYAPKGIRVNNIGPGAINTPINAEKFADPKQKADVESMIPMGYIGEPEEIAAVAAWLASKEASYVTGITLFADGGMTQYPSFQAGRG
Method: FIGS. 9A and 9B are graphical illustrations of the stability of glucose dehydrogenase in the presence of NAD or cNAD in a liquid phase at 50° C. for a period of 4 days (FIG. 9A) or 14 days (FIG. 9B) with test conditions of 10 mg/ml GlucDH; 12 mg/ml NAD or cNAD; buffer: 0.1 M Tris, 1.2 M NaCl, pH 8.5; temperature 50° C.
After 95 hours at 50° C. the residual activity of glucose dehydrogenase in the presence of the native coenzyme NAD is […], whereas the residual activity of GlucDH in the presence of the artificial coenzyme cNAD is 75% (FIG. 9A). After 336 hours storage at 50° C. the residual activity of the enzyme stabilized with NAD is now only about 1%; a residual activity of still about 70% is observed for the enzyme stored in the presence of cNAD. The corresponding SDS gels also show a change in the GlucDH bands in the presence of the native coenzyme NAD: new bands are seen at higher molar masses and there is a shift in the 30 kDa band.

[3] = tested on: diaphorase; assay: Diaphorase activity extracted from blood glucose test strips after storage; assay type: biochemical; details: blood glucose test strips stored at 32° C. and 30-70% relative air humidity
Method: A composition which, among others, contained glucose dehydrogenase (GlucDH), carbaNAD, diaphorase, nitrosoaniline and phosphomolybdic acid was used to determine blood glucose. Test strips were obtained by applying a first formulation to a polycarbonate foil using a doctor blade (layer height 100 μm), drying the first layer, applying a second formulation to the first layer (doctor blade gap 30 μm), and drying the second layer. The test strips were stored at 32° C. and 30-70% relative air humidity.

[4] = tested on: malate dehydrogenase; details: 3.8 mM ligand; 0.5M carbonate buffer, pH 10.0
Method: The DSC device was cleaned and calibrated according to the MicroCal handbook before carrying out the measurements in order to ensure a correct operation. Lysozyme (1 mg/ml) in 0.1 M glycine-HCl pH 2.4 was measured in duplicate as a control before and after each scan process. Measuring cells, valve and syringe were washed three times with water after every six injections. The data was analysed using the MicroClas Origin software.
In each case 0.1 M Tris buffer, pH 8.5 was used as the measurement buffer if not stated otherwise.

Chain of glucose dehydrogenase (GlucDH, wild-type) (P12310 whole entry): as above

NC(=O)c1ccc[n+]([C@@H]2C[C@H](COP(=O)([O-])OP(=O)(O)OC[C@H]3O[C@@H](n4cnc5c(N)ncnc54)[C@H](O)[C@@H]3O)[C@@H](O)[C@H]2O)c1 [carbaNAD]
residual activity of GlucDH ([1]; 5 weeks at 32° C. and 85% relative air humidity, compared to samples stored in refrigerator with desiccant): 70% | residual activity of GlucDH ([1]; 24 weeks at 32° C. and 85% relative air humidity): about 25% | residual activity of glucose dehydrogenase ([2]; 95 hours at 50° C.): 75% | residual activity of glucose dehydrogenase ([2]; 336 hours at 50° C.): about 70% | residual activity of diaphorase compared to formulation containing NAD [3]: considerably increased residual activity | TM [4]: 43.2 °C | ΔHcal [4]: 340 kcal/mol
